Data: US20260265238A1, “COMPOUNDS AND PHARMACEUTICAL COMPOSITIONS THAT DEGRADE SWI/SNF-RELATED MATRIX-ASSOCIATED ACTIN-DEPENDENT REGULATOR OF CHROMATIN SUBFAMILY A” (Plexium, Inc., priority 2023, published 2026)

What was measured:
[1] = molecular target: T1, SMARCA2-HiBiT HeLa cells (protein which is expressed from the SMARCA2 gene) (Homo sapiens, UniProt P51531); test: SMARCA2 degradation assay (HiBiT-fusion HeLa cell line, 24 h, luminescence); assay type: cell-based
T1 construct: protein which is expressed from the SMARCA2 and SMARCA4 genes; host or cells: HeLa (SMARCA2-HiBiT engineered line)
T1 sequence (P51531 whole entry, the tested form may be a part): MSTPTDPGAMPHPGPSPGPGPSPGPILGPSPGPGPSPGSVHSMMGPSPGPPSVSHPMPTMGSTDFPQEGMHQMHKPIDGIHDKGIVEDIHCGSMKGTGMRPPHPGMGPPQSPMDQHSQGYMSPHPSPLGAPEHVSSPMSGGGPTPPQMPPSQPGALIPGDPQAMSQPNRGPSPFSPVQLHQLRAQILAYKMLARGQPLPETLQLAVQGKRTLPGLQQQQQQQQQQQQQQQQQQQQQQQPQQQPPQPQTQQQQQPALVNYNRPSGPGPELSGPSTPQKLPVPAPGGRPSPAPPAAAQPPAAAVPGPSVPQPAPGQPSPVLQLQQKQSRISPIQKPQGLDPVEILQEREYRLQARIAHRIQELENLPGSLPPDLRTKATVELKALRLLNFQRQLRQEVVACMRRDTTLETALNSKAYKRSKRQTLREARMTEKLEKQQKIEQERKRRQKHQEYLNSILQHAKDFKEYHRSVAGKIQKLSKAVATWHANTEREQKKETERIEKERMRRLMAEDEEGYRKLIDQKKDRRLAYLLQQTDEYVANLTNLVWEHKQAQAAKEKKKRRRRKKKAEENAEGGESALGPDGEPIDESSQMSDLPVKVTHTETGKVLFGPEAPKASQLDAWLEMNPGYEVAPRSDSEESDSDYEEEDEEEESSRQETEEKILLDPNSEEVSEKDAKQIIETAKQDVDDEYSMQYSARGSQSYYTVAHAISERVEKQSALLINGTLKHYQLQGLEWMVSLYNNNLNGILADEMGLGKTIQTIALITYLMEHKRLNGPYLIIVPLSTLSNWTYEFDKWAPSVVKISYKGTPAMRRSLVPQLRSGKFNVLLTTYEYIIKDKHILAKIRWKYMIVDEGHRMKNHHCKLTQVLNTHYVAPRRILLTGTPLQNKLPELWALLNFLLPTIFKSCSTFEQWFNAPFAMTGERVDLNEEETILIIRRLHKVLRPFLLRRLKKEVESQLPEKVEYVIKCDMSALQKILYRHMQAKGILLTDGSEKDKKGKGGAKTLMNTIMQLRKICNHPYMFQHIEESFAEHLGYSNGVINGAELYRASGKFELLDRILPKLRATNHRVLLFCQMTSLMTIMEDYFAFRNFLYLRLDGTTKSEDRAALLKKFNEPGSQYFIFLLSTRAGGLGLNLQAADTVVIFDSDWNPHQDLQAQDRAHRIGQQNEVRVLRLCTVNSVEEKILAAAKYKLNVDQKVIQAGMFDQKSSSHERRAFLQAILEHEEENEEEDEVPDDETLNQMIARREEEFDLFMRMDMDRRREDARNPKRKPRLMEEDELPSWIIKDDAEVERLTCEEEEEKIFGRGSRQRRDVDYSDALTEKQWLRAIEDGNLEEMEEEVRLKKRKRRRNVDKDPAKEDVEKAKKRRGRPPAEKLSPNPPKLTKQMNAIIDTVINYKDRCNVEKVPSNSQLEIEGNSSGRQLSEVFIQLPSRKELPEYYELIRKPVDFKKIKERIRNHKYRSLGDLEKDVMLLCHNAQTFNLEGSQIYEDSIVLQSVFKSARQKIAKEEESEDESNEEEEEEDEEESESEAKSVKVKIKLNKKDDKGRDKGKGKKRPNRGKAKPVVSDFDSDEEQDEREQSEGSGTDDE
In short: (§1)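 HeLa cells carrying HiBiT-tagged SMARCA2 or SMARCA4 were seeded at 8,000 cells/well, allowed to attach overnight at 37° C., then given compounds in a 10-point dilution series (typically 10 μM to 300 pM) for 24 hours at 37° C. Remaining tagged protein was read by HiBiT lytic luminescence, and DC50s came from dose-response curves.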

[2] = molecular target: T2, SMARCA4-HiBiT HeLa cells (protein which is expressed from the SMARCA4 gene) (Homo sapiens, UniProt P51532); test: SMARCA4 degradation assay (HiBiT-fusion HeLa cell line, 24 h, luminescence); assay type: cell-based
T2 construct: protein which is expressed from the SMARCA2 and SMARCA4 genes; host or cells: HeLa (SMARCA4-HiBiT engineered line)
T2 sequence (P51532 whole entry, the tested form may be a part): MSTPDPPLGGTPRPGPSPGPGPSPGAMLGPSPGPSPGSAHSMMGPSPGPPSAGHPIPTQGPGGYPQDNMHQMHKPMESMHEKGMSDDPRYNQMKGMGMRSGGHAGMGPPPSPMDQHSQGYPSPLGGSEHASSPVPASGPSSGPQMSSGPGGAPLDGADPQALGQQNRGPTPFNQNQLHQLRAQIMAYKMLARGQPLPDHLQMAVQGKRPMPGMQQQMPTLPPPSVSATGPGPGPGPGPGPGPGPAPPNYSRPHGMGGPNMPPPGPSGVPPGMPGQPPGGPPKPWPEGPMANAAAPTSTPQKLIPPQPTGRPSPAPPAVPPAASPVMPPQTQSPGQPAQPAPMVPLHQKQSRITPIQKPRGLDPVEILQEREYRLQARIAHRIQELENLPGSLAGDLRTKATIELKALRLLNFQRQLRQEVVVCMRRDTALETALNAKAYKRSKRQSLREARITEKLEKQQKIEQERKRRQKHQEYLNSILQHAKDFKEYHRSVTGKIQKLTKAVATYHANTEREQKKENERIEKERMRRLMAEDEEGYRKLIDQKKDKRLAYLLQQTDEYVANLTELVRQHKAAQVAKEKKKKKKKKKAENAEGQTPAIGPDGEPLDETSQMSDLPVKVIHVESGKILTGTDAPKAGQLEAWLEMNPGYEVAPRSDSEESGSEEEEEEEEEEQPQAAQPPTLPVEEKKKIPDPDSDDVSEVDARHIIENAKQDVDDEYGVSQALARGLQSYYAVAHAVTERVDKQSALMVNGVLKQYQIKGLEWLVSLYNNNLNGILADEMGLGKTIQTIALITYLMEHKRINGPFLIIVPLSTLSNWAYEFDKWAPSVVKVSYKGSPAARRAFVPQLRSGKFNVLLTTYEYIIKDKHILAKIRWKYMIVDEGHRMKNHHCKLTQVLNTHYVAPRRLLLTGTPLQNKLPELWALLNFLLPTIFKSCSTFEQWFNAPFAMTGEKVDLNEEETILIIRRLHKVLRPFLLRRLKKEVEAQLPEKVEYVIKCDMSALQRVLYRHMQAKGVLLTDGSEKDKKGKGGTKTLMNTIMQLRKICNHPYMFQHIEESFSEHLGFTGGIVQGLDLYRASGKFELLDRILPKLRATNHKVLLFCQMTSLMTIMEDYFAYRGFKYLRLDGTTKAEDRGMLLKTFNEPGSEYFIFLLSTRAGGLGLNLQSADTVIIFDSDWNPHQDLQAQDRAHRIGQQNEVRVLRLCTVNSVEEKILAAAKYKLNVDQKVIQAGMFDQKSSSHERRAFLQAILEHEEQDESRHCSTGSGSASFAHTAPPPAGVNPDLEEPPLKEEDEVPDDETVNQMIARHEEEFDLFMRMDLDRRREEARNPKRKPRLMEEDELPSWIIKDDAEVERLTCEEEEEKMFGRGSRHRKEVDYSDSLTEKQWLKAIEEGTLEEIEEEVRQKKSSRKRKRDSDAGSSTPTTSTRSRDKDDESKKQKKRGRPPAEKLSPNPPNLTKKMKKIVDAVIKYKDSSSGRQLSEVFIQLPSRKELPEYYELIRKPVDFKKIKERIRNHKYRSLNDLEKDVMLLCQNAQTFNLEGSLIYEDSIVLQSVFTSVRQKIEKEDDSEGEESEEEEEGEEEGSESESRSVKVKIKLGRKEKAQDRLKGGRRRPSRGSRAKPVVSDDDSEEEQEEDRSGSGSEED
In short: as §1

| Compound | DC50 [1] [µM] | SMARCA2 % Degradation @ 1 μM [1] | DC50 [2] [µM] | inhibition at 1 µM [2] [%] |
| --- | --- | --- | --- | --- |
| CC(C)(C)OC(=O)NCC#Cc1nccc(N2CCCN(c3cc(-c4ccccc4O)nnc3N)CC2)n1 [Compound P-121, tert-butyl (3-(4-(4-(3-amino-6-(2-hydroxyphenyl)pyridazin-4-yl)-1,4-diazepan-1-yl)pyrimidin-2-yl)prop-2-yn-1-yl)carbamate] | 0.05 to 0.5 | +++ (+++=>70%) | 0.05 to 0.5 | > 70 |
| Nc1nnc(-c2ccccc2O)cc1N1CCN(c2ccnc(C#CCNC(=O)c3cc4ncccn4n3)n2)CC(F)C1 (stereo not shown) [Compound P-44, N-(3-(4-(4-(3-amino-6-(2-hydroxyphenyl)pyridazin-4-yl)-6-fluoro-1,4-diazepan-1-yl)pyrimidin-2-yl)prop-2-yn-1-yl)pyrazolo[1,5-a]pyrimidine-2-carboxamide] | 0.5 to 5 | ++ (++=30-70%) | 0.5 to 5 | 30 to 70 |
| NCC#Cc1nccc(N2CC3CN(c4cc(-c5ccccc5O)nnc4N)C3C2)n1 (stereo not shown) [Compound P-84, 2-(6-amino-5-(3-(2-(3-aminoprop-1-yn-1-yl)pyrimidin-4-yl)-3,6-diazabicyclo[3.2.0]heptan-6-yl)pyridazin-3-yl)phenol] | 0.5 to 5 | + (+=<30%) | > 5 | < 30 |
| Nc1nnc(-c2ccccc2O)cc1N1CCN(c2ccnc(C#CCNC(=O)c3ccn(CC(F)(F)F)n3)n2)CC1 [Compound P-9, N-[3-(4-{4-[3-amino-6-(2-hydroxyphenyl)pyridazin-4-yl]piperazin-1-yl}pyrimidin-2-yl)prop-2-yn-1-yl]-1-(2,2,2-trifluoroethyl)-1H-pyrazole-3-carboxamidc] | 0.05 to 0.5 | ++ (++=30-70%) | < 0.05 | 30 to 70 |
| C[C@H]1CCN1CC#Cc1nccc(N2CCCN(c3cc(-c4ccccc4O)nnc3N)CC2)n1 [Compound P-279, 0-{5-[4-(2-{3-[(S)-2-methyl-1-azetidinyl]-1-propynyl}-4-pyrimidinyl)-1,4-diazepan-1-y1]-6-amino-3-pyridazinyl}phenol] | 0.05 to 0.5 | +++ (+++=>70%) | 0.05 to 0.5 | 30 to 70 |
| Nc1nnc(-c2ccccc2O)cc1N1CC2CCC(C1)N2c1ccnc(C#CC2(NC(=O)c3cc4ncccn4n3)CC2)n1 [Compound P-98, N-(1-((4-(3-(3-amino-6-(2-hydroxyphenyl)pyridazin-4-yl)-3,8-diazabicyclo[3.2.1]octan-8-yl)pyrimidin-2-yl)ethynyl)cyclopropyl)pyrazolo[1,5-a]pyrimidine-2-carboxamide] | 0.05 to 0.5 | ++ (++=30-70%) | 0.05 to 0.5 | 30 to 70 |
| Nc1nnc(-c2ccccc2O)cc1N1CCCN(c2ccnc(C#CCN[C@H]3CCOC3)n2)CC1 [Compound P-275, 0-{5-[4-(2-{3-[(S)-tetrahydro-3-furylamino]-1-propynyl}-4-pyrimidinyl)-1,4-diazepan-1-yl]-6-amino-3-pyridaziny1}phenol] | 0.05 to 0.5 | +++ (+++=>70%) | 0.05 to 0.5 | 30 to 70 |
| C[C@H]1CN(c2ccnc(C#CCNC(=O)c3cc4ncccn4n3)n2)CCN1c1cc(-c2ccccc2O)nnc1N [Compound P-48, (S)-N-(3-(4-(4-(3-amino-6-(2-hydroxyphenyl)pyridazin-4-yl)-3-methylpiperazin-1-yl)pyrimidin-2-yl)prop-2-yn-1-yl)pyrazolo[1,5-a]pyrimidine-2-carboxamide] | 0.05 to 0.5 | ++ (++=30-70%) | 0.05 to 0.5 | 30 to 70 |
| Nc1nnc(-c2ccccc2O)cc1N1CCCN(c2ccnc(C#CCNCCF)n2)CC1 [Compound P-258, o-[6-amino-5-(4-{2-[3-(2-fluoroethylamino)-1-propynyl]-4-pyrimidinyl}-1,4-diazepan-1-yl)-3-pyridazinyl]phenol] | 0.5 to 5 | ++ (++=30-70%) | 0.5 to 5 | 30 to 70 |
| Nc1nnc(-c2ccccc2O)cc1N1CCCN(c2ccnc(C#CCn3cncn3)n2)CC1 [Compound P-148, 2-(5-(4-(2-(3-(1H-1,2,4-triazol-1-yl)prop-1-yn-1-yl)pyrimidin-4-yl)-1,4-diazepan-1-yl)-6-aminopyridazin-3-yl)phenol] | 0.05 to 0.5 | +++ (+++=>70%) | 0.05 to 0.5 | 30 to 70 |
| CN(C)CC#Cc1nccc(N2C[C@H]3CC[C@@H](C2)[C@H]3Oc2cc(-c3ccccc3O)nnc2N)n1 [Compound P-156, o-{5-[(1R,5S,8r)-3-{2-[3-(dimethylamino)-1-propynyl]-4-pyrimidinyl}-3-azabicyclo[3.2.1]oct-8-yloxy]-6-amino-3-pyridazinyl}phenol] | 0.05 to 0.5 | ++ (++=30-70%) | 0.5 to 5 | < 30 |
| C[C@@H]1CCN(c2cc(-c3ccccc3O)nnc2N)CCN1c1ccnc(C#CCN2CC(F)(F)C3(CCC3)C2)n1 [Compound P-209, o-{5-[(R)-4-(2-{3-(8,8-difluoro-6-aza-6-spiro[3.4]octyl)-1-propyny1}-4-pyrimidinyl)-5-methyl-1,4-diazepan-1-yl]-6-amino-3-pyridaziny1} phenol] | 0.05 to 0.5 | ++ (++=30-70%) | 0.05 to 0.5 | 30 to 70 |
| CN(C)CC#Cc1nccc(N2CCCN(c3cc(-c4ccccc4O)nnc3N)CC2)n1 [Compound P-152, 2-(6-amino-5-(4-(2-(3-(dimethylamino)prop-1-yn-1-yl)pyrimidin-4-yl)-1,4-diazepan-1-yl)pyridazin-3-yl)phenol] | 0.05 to 0.5 | +++ (+++=>70%) | 0.05 to 0.5 | 30 to 70 |
| CC1(F)CCN(CC#Cc2nccc(N3CC4CCC(C3)N4c3cc(-c4ccccc4O)nnc3N)n2)C1 (stereo not shown) [Compound P-193, o-[6-amino-5-(3-{2-[3-(3-fluoro-3-methyl-1-pyrrolidinyl)-1-propynyl]-4-pyrimidinyl}-3,8-diazabicyclo[3.2.1]oct-8-yl)-3-pyridazinyl]phenol] | 0.05 to 0.5 | ++ (++=30-70%) | 0.05 to 0.5 | < 30 |
| CC(C)(C)OC(=O)NCC#Cc1nccc(NC2CN(c3cc(-c4ccccc4O)nnc3N)C2)n1 [Compound P-307, 4-(3-{2-[3-(tert-butoxycarbonylamino)-1-propynyl]-4-pyrimidinylamino}-1-azetidinyl)-6-(o-hydroxyphenyl)-3-pyridazinamine] | 0.05 to 0.5 | ++ (++=30-70%) | 0.05 to 0.5 | 30 to 70 |
| Nc1nnc(-c2ccccc2O)cc1N1CCCN(c2ccnc(C#CCn3ncc4ccncc43)n2)CC1 [Compound P-116, 2-(5-(4-(2-(3-(1H-pyrazolo[3,4-c]pyridin-1-yl)prop-1-yn-1-yl)pyrimidin-4-yl)-1,4-diazepan-1-yl)-6-aminopyridazin-3-yl)phenol] | 0.05 to 0.5 | +++ (+++=>70%) | 0.05 to 0.5 | 30 to 70 |
| C[C@@H]1CCN(c2cc(-c3ccccc3O)nnc2N)CCN1c1ccnc(C#CCN2CC[C@H](F)C2)n1 [Compound P-244, o-{5-[(R)-4-(2-{3-[(S)-3-fluoro-1-pyrrolidinyl]-1-propynyl}-4-pyrimidinyl)-5-methyl-1,4-diazepan-1-yl]-6-amino-3-pyridaziny1}phenol] | < 0.05 | ++ (++=30-70%) | < 0.05 | 30 to 70 |
| Nc1nnc(-c2ccccc2O)cc1N1CCC2(CCN(c3ccnc(C#CCn4ccnc4)n3)CC2)C1 [Compound P-253, o-[6-amino-5-(8-{2-[3-(1-imidazolyl)-1-propynyl]-4-pyrimidinyl}-2,8-diaza-2-spiro [4.5]decyl)-3-pyridazinyl]phenol] | 0.05 to 0.5 | ++ (++=30-70%) | 0.05 to 0.5 | 30 to 70 |
| CS(=O)(=O)N1CCC(C#Cc2nccc(N3CCCN(c4cc(-c5ccccc5O)nnc4N)CC3)n2)CC1 [Compound P-352, 0-[6-amino-5-(4-{2-[2-(1-mesyl-4-piperidyl)ethynyl]-4-pyrimidinyl}-1,4-diazepan-1-yl)-3-pyridazinyl]phenol] | 0.5 to 5 | ++ (++=30-70%) | 0.5 to 5 | 30 to 70 |
| C[C@@H]1CCN(c2cc(-c3ccccc3O)nnc2N)CCN1c1ccnc(C#CCN2CC(F)(F)[C@@H]2C)n1 [Compound P-270, 0-{5-[(R)-4-(2-{3-[(S)-3,3-difluoro-2-methyl-1-azetidinyl]-1-propyny1}-4-pyrimidinyl)-5-methyl-1,4-diazepan-1-yl]-6-amino-3-pyridaziny1} phenol] | 0.05 to 0.5 | ++ (++=30-70%) | 0.05 to 0.5 | 30 to 70 |
| Nc1nnc(-c2ccccc2O)cc1N1CCCN(c2ccnc(C#CCN3CC(F)(F)C3)n2)CC1 [Compound P-312, 0-[6-amino-5-(4-{2-[3-(3,3-difluoro-1-azetidinyl)-1-propynyl]-4-pyrimidinyl}-1,4-diazepan-1-yl)-3-pyridazinyl]phenol] | 0.05 to 0.5 | +++ (+++=>70%) | 0.05 to 0.5 | 30 to 70 |
| C[C@H]1CN(c2ccnc(C#CCn3ccnc3)n2)CCN1c1cc(-c2ccccc2O)nnc1N [Compound P-293, 0-{5-[(S)-4-{2-[3-(1-imidazolyl)-1-propynyl]-4-pyrimidinyl}-2-methyl-1-piperaziny1]-6-amino-3-pyridazinyl}phenol] | 0.05 to 0.5 | ++ (++=30-70%) | < 0.05 | < 30 |
